Assay results published in US20230085307A1, “PYRIDAZINONE COMPOUND AND HERBICIDE” (NISSAN CHEMICAL CORPORATION, priority 2019, published 2023).

Key:
persian speedwell [1] = experiment: Test Example 5: herbicidal effect by foliage application, plastic box (Table 20, symbol R); format: in vivo, Persian speedwell (Veronica persica); conditions: foliage application, 320 g/ha, three weeks after application
How it was run: (§1)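 Post-emergence foliar test in sterilized diluvial soil. Compound applied as water-diluted emulsion at a predetermined rate to 14-day-old plants; evaluation at three weeks.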

blackgrass [2] = experiment: Test Example 5: herbicidal effect by foliage application, plastic box (Table 20, symbol J); format: in vivo, blackgrass (Alopecurus myosuroides); conditions: foliage application, 320 g/ha, three weeks after application
How it was run: as §1

redroot pigweed [3] = experiment: Test Example 5: herbicidal effect by foliage application, plastic box (Table 20, symbol N); format: in vivo, redroot pigweed (Amaranthus retroflexus); conditions: foliage application, 320 g/ha, three weeks after application
How it was run: as §1

barnyard grass [4] = experiment: Test Example 5: herbicidal effect by foliage application, plastic box (Table 20, symbol H); format: in vivo, barnyard grass (Echinochloa crus-galli); conditions: foliage application, 320 g/ha, three weeks after application
How it was run: as §1

Chinese sprangletop = experiment: Test Example 3: herbicidal effect by foliage application, Wagner pot (Table 18, symbol D); format: in vivo, chinese sprangletop (Leptochloa chinensis); conditions: 320 g/ha
How it was run: (§2)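 Plants were sown in alluvial soil held under 0.1–0.5 cm standing water and grown 14 days in a greenhouse at 25–30 °C. An emulsifiable formulation, water-diluted to the set dose, was then sprayed onto the foliage, and effects were scored three weeks later using previously defined criteria.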

windgrass [5] = experiment: Test Example 5: herbicidal effect by foliage application, plastic box (Table 20, symbol L); format: in vivo, windgrass (Apera spica-venti); conditions: foliage application, 320 g/ha, three weeks after application
How it was run: as §1

barnyard grass [6] = experiment: Test Example 4: herbicidal effect by soil treatment (Table 19, symbol H); format: in vivo, barnyard grass (Echinochloa crus-galli); conditions: amount of applied herbicide 320 g/ha
How it was run: (§3)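 Emulsion of test compound, water-diluted to predetermined amount, sprayed on soil after sowing (seed depth ~1.5 cm, sterilized diluvial soil). Greenhouse, 25–30° C. Effect graded at three weeks post-spray.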

windgrass [7] = experiment: Test Example 4: herbicidal effect by soil treatment (Table 19, symbol L); format: in vivo, windgrass (Apera spica-venti); conditions: amount of applied herbicide 320 g/ha
How it was run: as §3

velvetleaf [8] = experiment: Test Example 5: herbicidal effect by foliage application, plastic box (Table 20, symbol M); format: in vivo, velvetleaf (Abutilon theophrasti); conditions: foliage application, 320 g/ha, three weeks after application
How it was run: as §1

blackgrass [9] = experiment: Test Example 4: herbicidal effect by soil treatment (Table 19, symbol J); format: in vivo, blackgrass (Alopecurus myosuroides); conditions: amount of applied herbicide 320 g/ha
How it was run: as §3

lambsquarters [10] = experiment: Test Example 4: herbicidal effect by soil treatment (Table 19, symbol O); format: in vivo, lambsquarters (Chenopodium album); conditions: amount of applied herbicide 320 g/ha
How it was run: as §3

redroot pigweed [11] = experiment: Test Example 4: herbicidal effect by soil treatment (Table 19, symbol N); format: in vivo, redroot pigweed (Amaranthus retroflexus); conditions: amount of applied herbicide 320 g/ha
How it was run: as §3

wild oat [12] = experiment: Test Example 5: herbicidal effect by foliage application, plastic box (Table 20, symbol I); format: in vivo, wild oat (Avena fatua); conditions: foliage application, 320 g/ha, three weeks after application
How it was run: as §1

chickweed [13] = experiment: Test Example 5: herbicidal effect by foliage application, plastic box (Table 20, symbol P); format: in vivo, common chickweed (Stellaria media); conditions: foliage application, 320 g/ha, three weeks after application
How it was run: as §1

Italian ryegrass [14] = experiment: Test Example 5: herbicidal effect by foliage application, plastic box (Table 20, symbol K); format: in vivo, Italian ryegrass (Lolium multiflorum); conditions: foliage application, 320 g/ha, three weeks after application
How it was run: as §1

barnyard grass [15] = experiment: Test Example 3: herbicidal effect by foliage application, Wagner pot (Table 18, symbol H); format: in vivo, barnyard grass (Echinochloa crus-galli); conditions: 320 g/ha
How it was run: as §2

lambsquarters [16] = experiment: Test Example 5: herbicidal effect by foliage application, plastic box (Table 20, symbol O); format: in vivo, lambsquarters (Chenopodium album); conditions: foliage application, 320 g/ha, three weeks after application
How it was run: as §1

southern crabgrass [17] = experiment: Test Example 5: herbicidal effect by foliage application, plastic box (Table 20, symbol F); format: in vivo, southern crabgrass (Digitaria ciliaris); conditions: foliage application, 320 g/ha, three weeks after application
How it was run: as §1

green foxtail [18] = experiment: Test Example 4: herbicidal effect by soil treatment (Table 19, symbol G); format: in vivo, green foxtail (Setaria viridis); conditions: amount of applied herbicide 320 g/ha
How it was run: as §3

chickweed [19] = experiment: Test Example 4: herbicidal effect by soil treatment (Table 19, symbol P); format: in vivo, common chickweed (Stellaria media); conditions: amount of applied herbicide 320 g/ha
How it was run: as §3

persian speedwell [20] = experiment: Test Example 4: herbicidal effect by soil treatment (Table 19, symbol R); format: in vivo, Persian speedwell (Veronica persica); conditions: amount of applied herbicide 320 g/ha
How it was run: as §3

wild oat [21] = experiment: Test Example 4: herbicidal effect by soil treatment (Table 19, symbol I); format: in vivo, wild oat (Avena fatua); conditions: amount of applied herbicide 320 g/ha
How it was run: as §3

southern crabgrass [22] = experiment: Test Example 4: herbicidal effect by soil treatment (Table 19, symbol F); format: in vivo, southern crabgrass (Digitaria ciliaris); conditions: amount of applied herbicide 320 g/ha
How it was run: as §3

rice flat sedge = experiment: Test Example 3: herbicidal effect by foliage application, Wagner pot (Table 18, symbol E); format: in vivo, rice flat sedge (Cyperus iria); conditions: 320 g/ha
How it was run: as §2

velvetleaf [23] = experiment: Test Example 4: herbicidal effect by soil treatment (Table 19, symbol M); format: in vivo, velvetleaf (Abutilon theophrasti); conditions: amount of applied herbicide 320 g/ha
How it was run: as §3

Italian ryegrass [24] = experiment: Test Example 4: herbicidal effect by soil treatment (Table 19, symbol K); format: in vivo, Italian ryegrass (Lolium multiflorum); conditions: amount of applied herbicide 320 g/ha
How it was run: as §3

green foxtail [25] = experiment: Test Example 5: herbicidal effect by foliage application, plastic box (Table 20, symbol G); format: in vivo, green foxtail (Setaria viridis); conditions: foliage application, 320 g/ha, three weeks after application
How it was run: as §1

Structure (SMILES) | herbicidal effect grade, R: persian speedwell (persian speedwell [1]) | herbicidal effect grade, J: blackgrass (blackgrass [2]) | herbicidal effect grade, N: redroot pigweed (redroot pigweed [3]) | herbicidal effect grade, H: barnyard grass (barnyard grass [4]) | herbicidal effect on D (Chinese sprangletop), rating 0-5 (Chinese sprangletop) | herbicidal effect grade, L: windgrass (windgrass [5]) | herbicidal effect rating, H: barnyard grass (barnyard grass [6]) | herbicidal effect rating, L: windgrass (windgrass [7]) | herbicidal effect grade, M: velvetleaf (velvetleaf [8]) | herbicidal effect rating, J: blackgrass (blackgrass [9]) | herbicidal effect rating, O: lambsquarters (lambsquarters [10]) | herbicidal effect rating, N: redroot pigweed (redroot pigweed [11]) | herbicidal effect grade, I: wild oat (wild oat [12]) | herbicidal effect grade, P: chickweed (chickweed [13]) | herbicidal effect grade, K: Italian ryegrass (Italian ryegrass [14]) | herbicidal effect on H (barnyard grass), rating 0-5 (barnyard grass [15]) | herbicidal effect grade, O: lambsquarters (lambsquarters [16]) | herbicidal effect grade, F: southern crabgrass (southern crabgrass [17]) | herbicidal effect rating, G: green foxtail (green foxtail [18]) | herbicidal effect rating, P: chickweed (chickweed [19]) | other results
COc1ccc(F)cc1-c1sc2ccccc2c1-c1c(O)c(C)nn(C)c1=O [1-058] | 4 (Herbicidal rate of 70% or more and less than 90%) | 4 (Herbicidal rate of 70% or more and less than 90%) | 2 (Herbicidal rate of 20% or more and less than 40%) | 3 (Herbicidal rate of 40% or more and less than 70%) | 3 (Herbicidal rate of 40% or more and less than 70%) | 4 (Herbicidal rate of 70% or more and less than 90%) | 3 (Herbicidal rate of 40% or more and less than 70%) | 0 (Herbicidal rate of 5% or less (almost no effect)) | 1 (Herbicidal rate of 5% or more and less than 20%) | 2 (Herbicidal rate of 20% or more and less than 40%) | 3 (Herbicidal rate of 40% or more and less than 70%) | 2 (Herbicidal rate of 20% or more and less than 40%) | 1 (Herbicidal rate of 5% or more and less than 20%) | 5 (Herbicidal rate of 90% or more (almost completely withered)) | 4 (Herbicidal rate of 70% or more and less than 90%) | 4 (Herbicidal rate of 70% or more and less than 90%) | 0 (Herbicidal rate of 5% or less (almost no effect)) | 3 (Herbicidal rate of 40% or more and less than 70%) | 5 (Herbicidal rate of 90% or more (almost completely withered)) | 5 (Herbicidal rate of 90% or more (almost completely withered)) | herbicidal effect rating, R: persian speedwell (persian speedwell [20]): 4 (Herbicidal rate of 70% or more and less than 90%); herbicidal effect rating, I: wild oat (wild oat [21]): 1 (Herbicidal rate of 5% or more and less than 20%); herbicidal effect rating, F: southern crabgrass (southern crabgrass [22]): 2 (Herbicidal rate of 20% or more and less than 40%); herbicidal effect on E (rice flat sedge), rating 0-5 (rice flat sedge): 5 (Herbicidal rate of 90% or more (almost completely withered)); herbicidal effect rating, M: velvetleaf (velvetleaf [23]): 0 (Herbicidal rate of 5% or less (almost no effect)); herbicidal effect rating, K: Italian ryegrass (Italian ryegrass [24]): 0 (Herbicidal rate of 5% or less (almost no effect)); herbicidal effect grade, G: green foxtail (green foxtail [25]): 4 (Herbicidal rate of 70% or more and less than 90%)
CCOc1ccc(-c2sc3ccccc3c2-c2c(O)c(C)nn(C)c2=O)cn1 [1-076] | 5 (Herbicidal rate of 90% or more (almost completely withered)) | 0 (Herbicidal rate of 5% or less (almost no effect)) | 2 (Herbicidal rate of 20% or more and less than 40%) | 0 (Herbicidal rate of 5% or less (almost no effect)) | 0 (Herbicidal rate of 5% or less (almost no effect)) | 0 (Herbicidal rate of 5% or less (almost no effect)) | 0 (Herbicidal rate of 5% or less (almost no effect)) | 0 (Herbicidal rate of 5% or less (almost no effect)) | 3 (Herbicidal rate of 40% or more and less than 70%) | 0 (Herbicidal rate of 5% or less (almost no effect)) | 0 (Herbicidal rate of 5% or less (almost no effect)) | 0 (Herbicidal rate of 5% or less (almost no effect)) | 0 (Herbicidal rate of 5% or less (almost no effect)) | 5 (Herbicidal rate of 90% or more (almost completely withered)) | 1 (Herbicidal rate of 5% or more and less than 20%) | 1 (Herbicidal rate of 5% or more and less than 20%) | 1 (Herbicidal rate of 5% or more and less than 20%) | 0 (Herbicidal rate of 5% or less (almost no effect)) | 1 (Herbicidal rate of 5% or more and less than 20%) | 5 (Herbicidal rate of 90% or more (almost completely withered)) | herbicidal effect rating, R: persian speedwell (persian speedwell [20]): 5 (Herbicidal rate of 90% or more (almost completely withered)); herbicidal effect rating, I: wild oat (wild oat [21]): 0 (Herbicidal rate of 5% or less (almost no effect)); herbicidal effect rating, F: southern crabgrass (southern crabgrass [22]): 0 (Herbicidal rate of 5% or less (almost no effect)); herbicidal effect on E (rice flat sedge), rating 0-5 (rice flat sedge): 5 (Herbicidal rate of 90% or more (almost completely withered)); herbicidal effect rating, M: velvetleaf (velvetleaf [23]): 0 (Herbicidal rate of 5% or less (almost no effect)); herbicidal effect rating, K: Italian ryegrass (Italian ryegrass [24]): 0 (Herbicidal rate of 5% or less (almost no effect)); herbicidal effect grade, G: green foxtail (green foxtail [25]): 0 (Herbicidal rate of 5% or less (almost no effect))
